pEC50: −log10 of the molar value. ≈ marks a conversion by molar mass, not a printed value. Entries after “also recorded” stand apart in the source; their conditions may differ.
Tests used:
[1] = 7-days dose range finding study in dogs; settings: oral, 2000 mg/kg/day
[2] = system: OCT2; settings: cited from earlier work
[3] = Pharmacokinetics in C57BL/6 mice; assay type: in vivo, mouse; settings: male
Description: Adult male C57BL/6 mice and Sprague Dawley rats were purchased from Charles River Laboratory (Wilmington, MA). PK studies for mice and rats were conducted at NIH animal facility (Bethesda, MD). In-life dog and monkey PK studies were conducted at Absorption System (San Diego, CA) and Frontage Labs (Concord, OH), respectively. Dogs and monkeys were fasted overnight prior to dose administrations. All experimental procedures were reviewed and approved by the Animal Care and Use Committee (ACUC) of the NIH Division of Veterinary Resources (DVR) or CRO labs for in-life studies.
Male C57BL6 mice (n = 3 per time point, 24–40 g) were dosed at 5 mg/kg IV or 10 mg/kg oral gavage. The dosing volume was 3 mL/kg for IV and 10 ml/kg for PO. All dosing solutions were freshly prepared on the day of administration. Blood samples were collected over 24 h.
Blood samples from all groups and species were collected in K2EDTA tubes and stored on wet ice pending processing. Blood was centrifuged at 2200 g at 4°C for 10 min to isolate plasma. All samples were stored at -80°C until analysis.
Phoenix WinNonlin, version 8.1 (Certara, St. Louis, MO), was used to perform PK analysis with the non-compartmental approach (Models 200 and 201 for PO and IV datasets). The area under the plasma concentration vs. time curve (AUC) was calculated using the linear trapezoidal method. The terminal rate constant (λ) was obtained from the slope of at least three data points of the apparent terminal phase of the log-linear plasma concentration vs. time curve when available. AUC0–∞ was estimated as the sum of the AUC0–t (where t is the time of the last measurable concentration) and Ct/λ. The apparent terminal half-life (t½) was calculated as 0.693/λ. Bioavailability (F) was calculated using ratios of dose normalized AUC (AUC/Dose) obtained from PO and IV PK studies.

[4] = physchem; settings: for solubility thermodynamic: thermodynamic from solid
[5] = system: OATP1B1; settings: cited from earlier work
[6] = system: SARS-CoV-2 (USA_WA1/2020); assay: SARS-CoV-2 cytopathic effect (CPE) assay in Vero E6 cells; assay type: cell-based; settings: Severe acute respiratory syndrome coronavirus 2, Vero C1008; Vero E6 cells, MOI 0.002, 72 h, n = 2; read-out: EC50, inhibition of SARS-CoV-2 CPE
[7] = system: EpiAirway human tracheobronchial epithelial tissues
[8] = system: OAT1; settings: cited from earlier work
[9] = target: ENT4 (Homo sapiens, UniProt Q7RTT9); assay: Nucleoside transporter uptake, ENT4-transfected MDCK cells
ENT4, sequence (Q7RTT9 whole entry): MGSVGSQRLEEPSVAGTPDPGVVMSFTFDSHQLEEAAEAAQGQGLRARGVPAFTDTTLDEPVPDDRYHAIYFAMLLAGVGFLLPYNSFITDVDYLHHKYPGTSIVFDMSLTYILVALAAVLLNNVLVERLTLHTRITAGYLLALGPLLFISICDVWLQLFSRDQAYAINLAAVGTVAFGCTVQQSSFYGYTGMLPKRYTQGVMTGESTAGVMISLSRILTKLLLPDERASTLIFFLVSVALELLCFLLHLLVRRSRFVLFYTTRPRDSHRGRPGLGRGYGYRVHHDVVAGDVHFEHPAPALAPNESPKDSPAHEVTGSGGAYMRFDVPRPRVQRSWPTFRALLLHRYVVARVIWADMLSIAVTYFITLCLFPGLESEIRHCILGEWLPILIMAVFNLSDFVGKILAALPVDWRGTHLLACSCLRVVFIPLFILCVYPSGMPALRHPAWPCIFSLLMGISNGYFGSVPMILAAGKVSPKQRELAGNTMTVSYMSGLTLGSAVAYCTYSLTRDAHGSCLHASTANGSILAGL

[10] = system: OATP1B3; settings: cited from earlier work
[11] = target: T1, CNT2 (Homo sapiens, UniProt O43868); assay: Nucleoside transporter uptake, CNT2-transfected MDCK cells; assay type: in vitro ADME; settings: for Uptake compared to control cells: CNT2-transfected cells
T1 construct: expressed in transfected cells; host or cells: MDCK-II
T1 sequence (O43868 1-658): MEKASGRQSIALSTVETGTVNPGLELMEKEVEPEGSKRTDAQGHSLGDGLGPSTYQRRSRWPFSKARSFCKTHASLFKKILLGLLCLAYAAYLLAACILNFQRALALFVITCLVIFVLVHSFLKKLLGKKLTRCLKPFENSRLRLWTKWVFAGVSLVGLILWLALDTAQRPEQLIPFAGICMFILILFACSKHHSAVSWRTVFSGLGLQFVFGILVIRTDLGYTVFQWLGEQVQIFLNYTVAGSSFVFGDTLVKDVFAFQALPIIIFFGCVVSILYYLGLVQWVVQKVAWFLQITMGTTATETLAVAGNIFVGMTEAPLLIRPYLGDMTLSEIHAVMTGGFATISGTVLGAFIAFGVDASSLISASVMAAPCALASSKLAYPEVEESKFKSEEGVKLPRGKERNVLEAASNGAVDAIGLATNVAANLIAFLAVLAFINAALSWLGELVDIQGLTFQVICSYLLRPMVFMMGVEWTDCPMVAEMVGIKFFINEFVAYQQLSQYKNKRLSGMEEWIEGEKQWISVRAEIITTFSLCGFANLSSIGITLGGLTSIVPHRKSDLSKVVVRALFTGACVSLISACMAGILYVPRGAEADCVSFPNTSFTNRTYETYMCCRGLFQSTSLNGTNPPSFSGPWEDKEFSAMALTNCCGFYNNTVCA
Source text: Each condition was run in triplicate.

[12] = in vitro; assay type: in vitro ADME; settings: PAMPA, pH 7.4
Description: Stirring double-sink PAMPA (patented by Pion Inc.) was employed to determine permeability. Assay was performed as described previously ([Sun et al., 2017]). The PAMPA lipid membrane, which consisted of an artificial membrane of a proprietary lipid mixture and dodecane (Pion Inc.), was optimized to predict cell membrane permeability. This artificial membrane was immobilized on a plastic matrix of a 96-well “donor” filter plate placed below a 96-well “acceptor” plate. Both “donor” and “acceptor” wells were buffered to pH 7.4. […] Permeability calculations were performed using Pion Inc. software and were expressed in the unit of 10^–6 cm/s.

[13] = C57BL/6, mouse, in vivo, iv, 5 mg/kg
[14] = C57BL/6, mouse, in vivo, po, 10 mg/kg

N#C[C@@]1(c2ccc3c(N)ncnn23)O[C@H](CO)[C@@H](O)[C@H]1O [GS-441524]
Tolerability at maximum feasible dose [1]: well tolerated
Substrate of OCT2 [2]: not a substrate
Vd [3, 13]: 2.4 L/kg
clearance [3, 13]: 26 mL/min/kg
AUC(0-inf) [3, 14]: 2540 ng·h/mL
Cmax [3, 14]: 582 ng/mL
Tmax [3, 14]: 1.5 h
bioavailability [3, 14]: 39%
half-life ([3]; C57BL/6, plasma, Mouse, PO 10 mg/kg): 3.9 h
solubility thermodynamic ([4]; pH 1.6, simulated gastric fluid): > 1000 µg/mL
solubility thermodynamic ([4]; pH 2, aqueous buffer): > 1000 µg/mL
solubility ([4]; pH 5): 35 to 52 µg/mL (≈ 120 to 179 µM)
solubility thermodynamic ([4]; pH 5, aqueous buffer): 52 µg/mL (≈ 179 µM)
solubility thermodynamic ([4]; pH 5.8, fessif): 52 µg/mL (≈ 179 µM)
solubility thermodynamic ([4]; pH 6.5, fassif): 35 µg/mL (≈ 120 µM)
solubility thermodynamic ([4]; pH 7.4, aqueous buffer): 47 µg/mL (≈ 161 µM)
Substrate of OATP1B1 [5]: not a substrate
pEC50 [6]: 5.73
Cytotoxicity [7]: did not exhibit any cytotoxicity
Substrate of OAT1 [8]: not a substrate
Difference in uptake compared to control cells [9]: less than 2 fold
Substrate of OATP1B3 [10]: not a substrate
Substrate of CNT2 [11]: not a substrate; also recorded: unlikely to be a substrate
Uptake compared to control cells ([11]; 10 µM): higher than 2 fold
Uptake compared to control cells ([11]; 30 and 100 µM): less than 2 fold
Papp at 30 min [12]: < 1 ×10⁻⁶ cm/s

From publication PMC9424906 (Frontiers in Pharmacology, 2022)
